In patent US20210386367A1, “DEVICES AND SYSTEMS FOR GASTROINTESTINAL MICROBIOME DETECTION AND MANIPULATION” (Progenity, Inc., priority 2018, published 2021):
Values after ≈ are worked out from the molar mass of the structure shown.

Key:
[1] = test system: Enterococcus faecalis clinical isolates; assay: MIC distribution against clinical isolates; format: cell-based; settings: 50 E. faecalis isolates
Source text: (§1) As used herein, “minimum inhibitory concentration” or “MIC” refers to the lowest concentration of an antimicrobial agent, for example, an antimicrobial agent as described herein, required to inhibit the growth of an organism.
(§2) Many susceptibility testing methods are known in the art and can be used as described herein (see, e.g., Jorgensen and Ferraro (2009) Clinical Infectious Diseases 49:1749-1755; and Maurer et al. (2017) Infectious Disease Reports 9:6839; the entire contents of each of the foregoing are incorporated herein by reference). For example, antimicrobial susceptibility can be determined using conventional culture based methods such as the broth or agar dilution test. In these dilution tests, the bacterial isolate of interest is inoculated onto different media that include serial dilutions of an antimicrobial agent, and incubated under appropriate conditions (e.g., overnight at 37° C.) to allow for growth to occur. Following the incubation period, the media is examined to determine bacterial growth. The lowest concentration of antibiotic that prevents growth represents the minimal inhibitory concentration (MIC). Broth dilution tests can be miniaturized and mechanized allowing for reproducibility and high throughput.

[2] = test system: Staphylococcus aureus clinical isolates; assay: MIC distribution against clinical isolates; format: cell-based; settings: 50 S. aureus isolates
Source text: as §1, §2

[3] = test system: Staphylococcus aureus; assay: Broth microdilution MIC, 50 clinical isolates (28 MRSA); format: cell-based
Experimental: (§3) Minimal inhibitory concentration (MIC) values were determined by broth microdilution or agar dilution in accordance with guidelines from the Clinical and Laboratory Standards Institute (CLSI; (1) “Methods for Dilution Antimicrobial Susceptibility Tests for Bacteria That Grow Aerobically; Approved Standard; 11th ed.” CLSI standard M07-A11, 2018; (2) “Performance Standards for Antimicrobial Susceptibility Testing; Twenty-Eighth Informational Supplement,” CLSI document M100-S28, 2018; and (3) “Methods for Antimicrobial Susceptibility Testing of Anaerobic Bacteria; Approved Standard—Eighth Edition,” CLSI document M11-A8, 2012).
(§4) Tested aerobically by broth microdilution: • Escherichia coli, n=50 • Klebsiella spp., n=50 • Pseudomonas aeruginosa, n=50 • Streptococcus spp., n=50 • Staphylococcus aureus, n=50 • Enterococcus faecalis, n=50 • Enterobacter aerogenes, n=50 • Proteus mirabilis, n=50
(§5) Broth microdilution testing of aerobic bacteria was conducted in cation-adjusted Mueller Hinton broth (MHBII). For testing streptococci, lysed horse blood (LHB) was added to MHBII broth at a final concentration of 3%. Where LHB was used, it was added after filtering.
(§6) Broth microdilution susceptibility testing in 96-well microplates was conducted in accordance with CLSI methods (1) and (2). Automated liquid handlers were used to conduct serial dilutions and liquid transfers, including the Multidrop 384 (Labsystems, Helsinki, Finland), Biomek 2000, and the Biomek FX (Beckman Coulter, Fullerton, Calif.). All wells in columns 2 through 12 of a standard 96-well microdilution plate (Costar 3795) were filled with 150 μL of the appropriate diluent. Then, 300 μL of the test agents were added to the wells of column 1 of the plates at 100× the highest final concentration to be tested. Serial two-fold dilutions were made across the rows through column 11 using the Biomek 2000. The wells of column 12 contained no drug and served as the growth control wells. This plate served as the “mother plate” from which MIC assay plates or “daughter plates” were made.
(§7) The daughter plates were loaded with 190 μL per well of the appropriate medium using the Multidrop 384. The daughter plates were created using the Biomek FX which transferred 2 μL of drug solution from each well of a mother plate to each corresponding well of the daughter plate in a single step. A standardized inoculum of each test organism was prepared per CLSI methods (1) to equal a 0.5 McFarland standard, followed by a dilution of 1:20 for aerobes and 1:10 for anaerobes. The plates were then inoculated with 10 μL of the diluted inoculum using the Biomek 2000 from low to high drug concentration, resulting in a final concentration of approximately 5×10^5 CFU/mL per well. An un-inoculated plate was incubated in parallel for each medium for the purpose of assessing solubility of the drug in the test media.
(§8) Inoculated plates were stacked 3 or 4 high, covered with a sterile lid on the top plate, placed into boxes with CO2 planchets (streptococci) or plastic bags (all other isolates). Plates were incubated at 35° C. for 16-24 hr in ambient air for aerobes or for 42-48 hr in the anaerobic environment of the Bactron II anaerobe chamber (Sheldon Manufacturing Co.; Cornelius, Oreg.). Following incubation, the microplates were removed from the incubator and viewed from the bottom using a plate viewer. The MIC values were read and recorded as the lowest concentration of drug that inhibited visible growth of the organism as per CLSI methods (1) and (2).

[4] = test system: Enterococcus faecalis; assay: Broth microdilution MIC, 50 clinical isolates; format: cell-based
Experimental: as §3, §4, §5, §6, §7, §8

[5] = test system: Streptococcus spp. spontaneous mutants; settings: S. pneumoniae ATCC 49619; CLSI QC range shown in parentheses; cited from earlier work
[6] = test system: Streptococcus spp. spontaneous mutants; assay: organism not typed; format: cell-based
Experimental: Select isolates were subcultured onto agar containing drug at the selection concentration, were identified by MALDI, and were frozen for broth microdilution MIC testing as described below.
To determine whether colonies growing on drug selection plates had elevated MIC values to the selecting antibiotic, susceptibility testing by broth microdilution was conducted on isolated mutants following methodology recommended by CLSI (1), (2), and (3) “Performance Standards for Antimicrobial Susceptibility Testing; Twenty-Eighth Informational Supplement.,” CLSI document M100-S28, 2018.
All wells in columns 2 through 12 of a standard 96-well microdilution plate (Costar 3795) were filled with 150 μL of the appropriate diluent. Then, 300 μL of the test agents were added to the wells of column 1 of the plates at […] the highest final concentration to be tested. Serial two-fold dilutions were made across the rows through column 11 using the Biomek 2000. The wells of column 12 contained no drug and served as the growth control wells. This plate served as the “mother plate” from which selected MIC assay plates or “daughter plates” were made.
2 μL of drug solution from each well of a mother plate was added to each corresponding well of the daughter plate in a single step. A standardized inoculum of each aerobic test organism was prepared per CLSI methods to equal a 0.5 McFarland standard, followed by a dilution of 1:20 in MHB II. The plates were then inoculated with 10 μL of the diluted inoculum using the Biomek 2000 from low to high drug concentration, resulting in a final concentration of approximately 5×10^5 CFU/mL. An un-inoculated plate was incubated for the purpose of assessing solubility of the drug in the test media.
The plates for the aerobic tests were stacked 3-4 high, covered with a sterile lid on the top plate, and incubated aerobically at 35° C. for 18-20 hr. The MIC was recorded as the lowest concentration of drug that inhibited visible growth of the organism.

Which results are given for `Cc1onc(-c2ccccc2)c1C(=O)N[C@@H]1C(=O)N2[C@@H]1SC(C)(C)[C@@H]2C(=O)O` [oxacillin, Oxacillin]?
Cumulative percentage of isolates inhibited at MIC ([1]; MIC 2 μg/mL): 2.0%; Number of test isolates at MIC ([1]; MIC 2 μg/mL): 1; Cumulative percentage of isolates inhibited at MIC ([1]; MIC 8 μg/mL): 16.0%; Number of test isolates at MIC ([1]; MIC 8 μg/mL): 7; Cumulative percentage of isolates inhibited at MIC ([1]; MIC 16 μg/mL): 54.0%; Number of test isolates at MIC ([1]; MIC 16 μg/mL): 19; Cumulative percentage of isolates inhibited at MIC ([1]; MIC >16 μg/mL): 100.0%; Number of test isolates at MIC ([1]; MIC >16 μg/mL): 23; Cumulative percentage of isolates inhibited at MIC ([2]; MIC 0.5 μg/mL): 28.0%; Number of test isolates at MIC ([2]; MIC 0.5 μg/mL): 10; Cumulative percentage of isolates inhibited at MIC ([2]; MIC 1 μg/mL): 42.0%; Number of test isolates at MIC ([2]; MIC 1 μg/mL): 7; Cumulative percentage of isolates inhibited at MIC ([2]; MIC 2 μg/mL): 44.0%; Number of test isolates at MIC ([2]; MIC 2 μg/mL): 1; Cumulative percentage of isolates inhibited at MIC ([2]; MIC 4 μg/mL): 48.0%; Number of test isolates at MIC ([2]; MIC 4 μg/mL): 2; Cumulative percentage of isolates inhibited at MIC ([2]; MIC 8 μg/mL): 50.0%; Number of test isolates at MIC ([2]; MIC 8 μg/mL): 1; Cumulative percentage of isolates inhibited at MIC ([2]; MIC >16 μg/mL): 100.0%; Number of test isolates at MIC ([2]; MIC >16 μg/mL): 25; Cumulative percentage of isolates inhibited at MIC ([2]; MIC […]): 8.0%; Number of test isolates at MIC ([2]; MIC […]): 4; % R [3]: 56%; % S [3]: 44%; Mode [3]: >16 µg/mL; MIC50 ([3]; Staphylococcus aureus, read-out: MIC50): 8 µg/mL (≈ 19.9 µM); MIC90 ([3]; Staphylococcus aureus, read-out: MIC90): > 16 µg/mL; Mode [4]: >16 µg/mL; MIC50 ([4]; Enterococcus faecalis, read-out: MIC50): 16 µg/mL (≈ 39.9 µM); MIC90 ([4]; Enterococcus faecalis, read-out: MIC90): > 16 µg/mL

What does the source list for `CC[C@H]1OC(=O)[C@H](C)[C@@H](O[C@H]2C[C@@](C)(OC)[C@@H](O)[C@H](C)O2)[C@H](C)[C@@H](O[C@@H]2O[C@H](C)C[C@H](N(C)C)[C@H]2O)[C@](C)(O)C[C@@H](C)CN(C)[C@H](C)[C@@H](O)[C@]1(C)O` [AZI]?
MIC, CLSI QC range [5]: (0.06-0.25) μg/mL; MIC ([6]; S. agaloctiae ATCC 13813, selected on rifaximin 4X MIC, Colony A): 0.015 µg/mL (≈ 0.02 µM); MIC ([6]; S. agaloctiae ATCC 13813, selected on rifaximin 4X MIC, Colony B): 0.015 µg/mL (≈ 0.02 µM); MIC ([6]; S. agaloctiae ATCC 13813, selected on rifaximin 8X MIC, Colony A): 0.015 µg/mL (≈ 0.02 µM); MIC ([6]; S. agaloctiae ATCC 13813, selected on rifaximin 8X MIC, Colony B): 0.015 µg/mL (≈ 0.02 µM); MIC ([6]; S. agaloctiae ATCC 13813 Parent): 0.015 µg/mL (≈ 0.02 µM); MIC ([6]; S. pneumoniae ATCC 49619, selected on rifaximin 4X MIC, Colony A): 0.03 µg/mL (≈ 0.0401 µM); MIC ([6]; S. pneumoniae ATCC 49619, selected on rifaximin 4X MIC, Colony B): 0.03 µg/mL (≈ 0.0401 µM); MIC ([6]; S. pneumoniae ATCC 49619, selected on rifaximin 8X MIC, Colony A): 0.03 µg/mL (≈ 0.0401 µM); MIC ([6]; S. pneumoniae ATCC 49619, selected on rifaximin 8X MIC, Colony B): 0.03 µg/mL (≈ 0.0401 µM); MIC ([6]; S. pneumoniae ATCC 49619 Parent): 0.06 µg/mL (≈ 0.0801 µM); MIC ([6]; S. pyogenes ATCC 49399, selected on rifaximin 4X MIC, Colony A): 0.06 µg/mL (≈ 0.0801 µM); MIC ([6]; S. pyogenes ATCC 49399, selected on rifaximin 4X MIC, Colony B): 0.06 µg/mL (≈ 0.0801 µM); MIC ([6]; S. pyogenes ATCC 49399, selected on rifaximin 8X MIC, Colony A): 0.06 µg/mL (≈ 0.0801 µM); MIC ([6]; S. pyogenes ATCC 49399, selected on rifaximin 8X MIC, Colony B): 0.06 µg/mL (≈ 0.0801 µM); MIC ([6]; S. pyogenes ATCC 49399 Parent): 0.03 µg/mL (≈ 0.0401 µM)
